ChEMBL document CHEMBL1132511, “Stereospecific synthesis of a GS 4104 metabolite: determination of absolute stereochemistry and influenza neuraminidase inhibitory activity” (Bioorg Med Chem Lett, 1999)

The molecules below were run against Neuraminidase (Influenza A virus (A/Puerto Rico/8/1934(H1N1)), UniProt P03468) (assay: In vitro inhibitory activity against influenza A neuraminidase using enzymatic assay).
Sequence of Neuraminidase (Influenza A virus (A/Puerto Rico/8/1934(H1N1)), UniProt P03468) (P03468 whole entry): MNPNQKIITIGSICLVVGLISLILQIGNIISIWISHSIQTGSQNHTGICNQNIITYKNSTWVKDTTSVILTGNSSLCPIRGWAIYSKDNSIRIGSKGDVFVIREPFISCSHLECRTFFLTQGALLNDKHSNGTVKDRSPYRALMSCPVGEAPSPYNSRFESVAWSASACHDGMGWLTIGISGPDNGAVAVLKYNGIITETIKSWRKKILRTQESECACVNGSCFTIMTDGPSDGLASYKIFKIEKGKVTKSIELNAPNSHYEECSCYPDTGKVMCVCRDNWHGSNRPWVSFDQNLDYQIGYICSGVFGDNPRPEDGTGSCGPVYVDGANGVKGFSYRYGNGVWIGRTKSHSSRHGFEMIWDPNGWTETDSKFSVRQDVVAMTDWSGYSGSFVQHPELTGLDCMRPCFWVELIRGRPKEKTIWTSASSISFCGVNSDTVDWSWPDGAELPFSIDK
Work on `CC[C@@H](CCO)O[C@@H]1C=C(C(=O)O)C[C@H](N)[C@H]1NC(C)=O` yielded an IC50 of 30 nM. With `CC[C@@H](CC(=O)O)O[C@@H]1C=C(C(=O)O)C[C@H](N)[C@H]1NC(C)=O` the IC50 was 450 nM. Work on `CC[C@H](CC(=O)O)O[C@@H]1C=C(C(=O)O)C[C@H](N)[C@H]1NC(C)=O` yielded an IC50 of 1150 nM. `CC[C@H](CCO)O[C@@H]1C=C(C(=O)O)C[C@H](N)[C@H]1NC(C)=O` was tested, and the IC50 was 40 nM.

Each molecule was assayed on Influenza B virus (assay: In vitro inhibitory activity against influenza B neuraminidase using enzymatic assay).
Assay type: functional
`CC[C@@H](CCO)O[C@@H]1C=C(C(=O)O)C[C@H](N)[C@H]1NC(C)=O` showed an IC50 of 85 nM. Work on `CCC(CC)O[C@@H]1C=C(C(=O)O)C[C@H](N)[C@H]1NC(C)=O` [OSELTAMIVIR CARBOXYLATE] yielded an IC50 of 4 nM. For `CC[C@H](CCO)O[C@@H]1C=C(C(=O)O)C[C@H](N)[C@H]1NC(C)=O`, the IC50 was 400 nM.
